# Reference: patent publication US10633407B2, “14-membered ketolides and methods of their preparation and use” (President and Fellows of Harvard College, priority 2014, dated 2020)
# Where two headings read alike, the source gives them in different places.
# Columns and labels:
# Assay type in all cases: cell-based
# [1] = tested on: A. baumannii ATCC 19606; assay: CLSI broth dilution MIC determination
# [2] = tested on: A. baumannii imipenem-resistant; assay: CLSI broth dilution MIC determination
# [3] = tested on: K. pneumoniae KPC-2; assay: CLSI broth dilution MIC determination
# [4] = tested on: E. faecalis ATCC 29212; assay: CLSI broth dilution MIC determination
# [5] = tested on: A. baumannii IMP-4; assay: CLSI broth dilution MIC determination
# [6] = tested on: E. faecalis Vancomycin-resistant; assay: CLSI broth dilution MIC determination
# [7] = tested on: K. pneumoniae ATCC 10031; assay: CLSI broth dilution MIC determination
# [8] = tested on: E. coli TEM-1; assay: CLSI broth dilution MIC determination
# Method in brief: (§1)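 Minimum inhibitory concentrations come from CLSI-standard broth dilution. The panel emphasises macrolide-resistance mechanisms, whose genotypes can be constitutive or inducible.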
# [9] = tested on: S. aureus ATCC 29213; assay: CLSI broth dilution MIC determination
# Method in brief: as §1
# [10] = tested on: S. aureus MRSA: USA100; assay: CLSI broth dilution MIC determination
# Method in brief: as §1
# [11] = tested on: S. aureus USA600, GISA; assay: CLSI broth dilution MIC determination
# Method in brief: as §1
# [12] = tested on: S. pneumoniae erm B + tet(M,O) genotype; assay: CLSI broth dilution MIC determination; details: Streptococcus pneumoniae
# Method in brief: as §1
# [13] = tested on: S. pneumoniae erm B + mef A genotype; assay: CLSI broth dilution MIC determination; details: Streptococcus pneumoniae
# Method in brief: as §1
# [14] = tested on: H. influenzae ATCC49247; assay: CLSI broth dilution MIC determination
# Method in brief: as §1
# [15] = tested on: S. aureus MRSA: USA300; assay: CLSI broth dilution MIC determination
# Method in brief: as §1
# [16] = tested on: S. pneumoniae ATCC 49619; assay: CLSI broth dilution MIC determination
# Method in brief: as §1
# [17] = tested on: E. coli NDM-1; assay: CLSI broth dilution MIC determination
# Method in brief: as §1
# [18] = tested on: E. coli ATCC 25922; assay: CLSI broth dilution MIC determination
# Method in brief: as §1
# [19] = tested on: S. pneumoniae mef A genotype (second strain so labelled); assay: CLSI broth dilution MIC determination
# Method in brief: as §1
# [20] = tested on: K. pneumoniae TEM-10; assay: CLSI broth dilution MIC determination
# [21] = tested on: E. coli CTX-M-14; assay: CLSI broth dilution MIC determination
# Method in brief: as §1
# [22] = tested on: S. aureus erm A genotype; assay: CLSI broth dilution MIC determination
# Method in brief: as §1
# [23] = tested on: P. aeruginosa HPA101-1477; assay: CLSI broth dilution MIC determination
# [24] = tested on: K. pneumoniae SHV-12; assay: CLSI broth dilution MIC determination
# [25] = tested on: S. pyogenes ATCC 19615; assay: CLSI broth dilution MIC determination
# [26] = tested on: S. pyogenes Macrolide-resistant; assay: CLSI broth dilution MIC determination
# [27] = tested on: H. influenzae Erythro >4, Azithro 1; assay: CLSI broth dilution MIC determination
# Excerpt: MIC data was collected for the novel macrolides that this platform has produced against over 21 unique strains of B. subtilis, E. coli, S. aureus, S. pneumoniae, and H. influenzae, including several multidrug-resistant strains, with a special focus on macrolide resistant mechanisms (vide supra). […] CLSI standard procedures for broth dilution MIC determination were used. […] These genotypes can be constitutive or inducible.
# [28] = tested on: P. aeruginosa ATCC 27853; assay: CLSI broth dilution MIC determination
# [29] = tested on: A. baumannii chromosomal class C; assay: CLSI broth dilution MIC determination
# [30] = tested on: strains of B. subtilis, E. coli, S. aureus, S. pneumoniae, and H. influenzae, including several multidrug-resistant strains; assay: CLSI broth dilution MIC determination, whole panel of strains; details: from MIC data, Tables B1-B13
# Excerpt: MIC data was collected for the novel macrolides that this platform has produced against over 21 unique strains of B. subtilis, E. coli, S. aureus, S. pneumoniae, and H. influenzae, including several multidrug-resistant strains, with a special focus on macrolide resistant mechanisms (vide supra). Azithromycin (Azithro) and Solithromycin (Solithro) were included as a control macrolides in many cases. CLSI standard procedures for broth dilution MIC determination were used. […] These genotypes can be constitutive or inducible.
# [31] = Acinetobacter baumannii, read-out: MIC
# [32] = Haemophilus influenzae, read-out: MIC
smiles,measurement,setting,value
CC[C@H]1OC(=O)[C@@](C)(F)C(=O)[C@H](C)[C@@H](O[C@@H]2OC(C)CC(N(C)C)C2O)[C@](C)(OC)C[C@@H](C)C(=O)[C@H](C)[C@H]2N(CC#CCn3cc(-c4cccc(N)c4)nn3)C(=O)O[C@]12C (stereo partly drawn) [FSM-100426],MIC,"[1]; A. baumannii ATCC 19606, Gram-negative",16 µg/mL
same,MIC,"[1]; Acinetobacter baumannii, ATCC19606, A. baumannii ATCC 19606 (MP-15), read-out: MIC",16 µg/mL
same,MIC,[2]; [31],8 µg/mL
same,MIC,[2]; Gram-negative,8 µg/mL
same,MIC,[3]; Gram-negative,> 32 µg/mL
same,MIC,"[3]; Klebsiella pneumoniae, KPC2, read-out: MIC",> 32 µg/mL
same,MIC,"[4]; E. faecalis ATCC 29212, Gram-positive",< 0.0312 µg/mL
same,MIC,"[4]; Enterococcus faecalis, ATCC29212, E. faecalis ATCC 29212 (MP-24), read-out: MIC",< 0.0312 µg/mL
same,MIC,"[5]; Acinetobacter baumannii, IMP4, read-out: MIC",> 32 µg/mL
same,MIC,[5]; Gram-negative,> 32 µg/mL
same,MIC,"[6]; E. faecalis Vancomycin-resistant, Gram-positive",8 µg/mL
same,MIC,"[6]; Enterococcus faecalis, E. faecalis Vancomycin-resistant (UNT-039), read-out: MIC",8 µg/mL
same,MIC,"[7]; K. pneumoniae ATCC 10031, Gram-negative",8 µg/mL
same,MIC,"[7]; Klebsiella pneumoniae, ATCC10031, K. pneumoniae ATCC 10031 (MP-14), read-out: MIC",8 µg/mL
same,MIC,"[8]; E. coli TEM-1, Gram-negative",> 32 µg/mL
same,MIC,"[8]; Escherichia coli, TEM1",> 32 µg/mL
same,MIC,"[9]; S. aureus ATCC 29213, Gram-positive",0.0625 µg/mL
same,MIC,"[9]; Staphylococcus aureus, ATCC29213, S. aureus ATCC 29213 (MP-12), read-out: MIC",0.0625 µg/mL
same,MIC,"[10]; S. aureus MRSA: USA100, Gram-positive",> 32 µg/mL
same,MIC,"[10]; Staphylococcus aureus, S. aureus MRSA: USA100 (MP-618 UNT-096), read-out: MIC",> 32 µg/mL
same,MIC,"[11]; S. aureus USA600, GISA, Gram-positive",32 µg/mL
same,MIC,"[11]; Staphylococcus aureus, S. aureus USA600, GISA (MP-619 UNT-120), read-out: MIC",32 µg/mL
same,MIC,[12],< 0.0312 µg/mL
same,MIC,[13],< 0.0312 µg/mL
same,MIC,[14]; Gram-negative,4 µg/mL
same,MIC,[14]; [32],4 µg/mL
same,MIC,"[15]; S. aureus MRSA: USA300, Gram-positive",0.5 µg/mL
same,MIC,"[15]; Staphylococcus aureus, S. aureus MRSA: USA300 (MP-549, msr(a)), read-out: MIC",0.5 µg/mL
same,MIC,"[16]; S. pneumoniae ATCC 49619, Gram-positive",< 0.0312 µg/mL
same,MIC,"[16]; Streptococcus pneumoniae, ATCC49619, S. pneumoniae ATCC 49619 (MP-21), read-out: MIC",< 0.0312 µg/mL
same,MIC,"[17]; Escherichia coli, NDM1, read-out: MIC",> 32 µg/mL
same,MIC,[17]; Gram-negative,> 32 µg/mL
same,MIC,"[18]; E. coli ATCC 25922, Gram-negative",32 µg/mL
same,MIC,"[18]; Escherichia coli, ATCC25922, E. coli ATCC 25922 (MP-4), read-out: MIC",32 µg/mL
same,MIC,[19]; Gram-positive,< 0.0312 µg/mL
same,MIC,"[19]; Streptococcus pneumoniae, second strain (MP-627 UNT-039), read-out: MIC",< 0.0312 µg/mL
same,MIC,[20]; Gram-negative,> 32 µg/mL
same,MIC,"[20]; Klebsiella pneumoniae, TEM10, read-out: MIC",> 32 µg/mL
same,MIC,"[21]; Escherichia coli, CTXM14, read-out: MIC",> 32 µg/mL
same,MIC,[21]; Gram-negative,> 32 µg/mL
same,MIC,"[22]; S. aureus erm A genotype, Gram-positive",> 32 µg/mL
same,MIC,"[22]; Staphylococcus aureus, S. aureus erm A genotype (MP-620 UNT-146), read-out: MIC",> 32 µg/mL
same,MIC,[23]; Gram-negative,> 32 µg/mL
same,MIC,"[23]; Pseudomonas aeruginosa, HPA1011477, read-out: MIC",> 32 µg/mL
same,MIC,[24]; Gram-negative,> 32 µg/mL
same,MIC,"[24]; Klebsiella pneumoniae, SHV12, read-out: MIC",> 32 µg/mL
same,MIC,"[25]; S. pyogenes ATCC 19615, Gram-positive",< 0.0312 µg/mL
same,MIC,"[25]; Streptococcus pyogenes, ATCC19615, S. pyogenes ATCC 19615 (MP-19), read-out: MIC",< 0.0312 µg/mL
same,MIC,"[26]; S. pyogenes Macrolide-resistant, Gram-positive",< 0.0312 µg/mL
same,MIC,"[26]; Streptococcus pyogenes, S. pyogenes Macrolide-resistant (MP-625 UNT-014), read-out: MIC",< 0.0312 µg/mL
same,MIC,"[27]; H. influenzae Erythro >4, Azithro 1, Gram-negative",4 µg/mL
same,MIC,[27]; [32],4 µg/mL
same,MIC,"[28]; P. aeruginosa ATCC 27853, Gram-negative",> 32 µg/mL
same,MIC,"[28]; Pseudomonas aeruginosa, ATCC27853, P. aeruginosa ATCC 27853 (MP-3), read-out: MIC",> 32 µg/mL
same,MIC,[29]; [31],32 µg/mL
same,MIC,[29]; Gram-negative,32 µg/mL
same,potency compared with solithromycin,[30],more potent
